Measurements published in PMC8394412, “Identification and Characterization of Cannabidiol as an OX1R Antagonist by Computational and In Vitro Functional Validation” (Biomolecules, 2021).

Target: T1, orexin 1 receptor (OX1R) (Homo sapiens, UniProt O43613)
T1 construct: gene HCRTR1
T1 sequence (O43613 1-425): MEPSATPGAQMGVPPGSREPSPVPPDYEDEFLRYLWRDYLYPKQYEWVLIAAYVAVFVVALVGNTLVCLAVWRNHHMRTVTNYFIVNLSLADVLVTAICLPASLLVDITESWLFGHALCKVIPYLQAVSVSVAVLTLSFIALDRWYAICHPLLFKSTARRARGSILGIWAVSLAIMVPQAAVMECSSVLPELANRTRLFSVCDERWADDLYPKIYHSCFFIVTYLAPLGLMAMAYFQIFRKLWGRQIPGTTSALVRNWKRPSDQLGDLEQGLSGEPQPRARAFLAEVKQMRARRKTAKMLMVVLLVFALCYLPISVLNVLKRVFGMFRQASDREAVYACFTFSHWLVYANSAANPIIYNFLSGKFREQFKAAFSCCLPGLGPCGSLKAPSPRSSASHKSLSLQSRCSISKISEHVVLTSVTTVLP
Test: […]orexin-A radioligand displacement on OX1R-CHO membranes; functional Ca2+ antagonism IC50 […]
Format: binding

Compound: C=C(C)[C@@H]1CCC(C)=C[C@H]1c1c(O)cc(CCCCC)cc1O [CBD, cannabidiol]
- Ki: 1580 ± 200 nM
